{"source": "patent US20250325524A1", "about": "“COMPOSITIONS AND METHODS FOR TREATING RENAL INJURY” (CASE WESTERN RESERVE UNIVERSITY, priority 2018, published 2025)", "key": {"[1]": {"system": "mice with ischemic AKI", "test": "renal ischemia-reperfusion injury model: renal function (serum creatinine, NGAL, KIM-1)", "assay_type": "in vivo", "details": "IRI-30 min, 3 doses of 5 mg/kg, 24 hours reperfusion", "procedure": "(§1) Mice were anesthetized with isoflurane using a vaporizer and placed on a heating pad to maintain their body temperature at 37° C. Both renal arteries were identified through dorsal incisions and clamped for 20, 30, 35, or 37 minutes. Reperfusion was confirmed visually upon release of the clamps. Surgical wounds were closed, and mice were administered 1 mL of saline i.p. The mice were kept in a warm incubator until they regained consciousness and were allowed to recover with ad libitum access to food and water. […] Serum and kidney tissue were collected 24 hours after renal IRI.\nRenal function was assessed by determining the serum levels of creatinine (KB02-H1; Arbor Assays), Lipocalin-2 (NGAL; MLCN20; R&D Systems), and kidney injury molecule-1 (KIM-1; MKM100; R&D Systems) after reperfusion for 24 h."}, "[2]": {"test": "chemical stability in aqueous solutions", "assay_type": "physicochemical", "details": "over broad pH range"}, "[3]": {"system": "PGE2 production by cell lines", "test": "PGE2 production by cell lines", "assay_type": "cell-based"}, "[4]": {"molecular_target": "T1, recombinant 15-PGDH (Homo sapiens, UniProt P15428)", "T1 sequence (P15428 1-266)": "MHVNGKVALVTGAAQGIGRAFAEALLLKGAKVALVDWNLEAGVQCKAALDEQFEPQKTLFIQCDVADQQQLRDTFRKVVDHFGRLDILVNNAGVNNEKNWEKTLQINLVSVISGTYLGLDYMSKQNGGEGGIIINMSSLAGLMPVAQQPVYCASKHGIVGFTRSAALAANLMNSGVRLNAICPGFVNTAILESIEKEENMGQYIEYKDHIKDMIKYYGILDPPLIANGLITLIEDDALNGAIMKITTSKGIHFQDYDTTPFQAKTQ", "test": "inhibition of recombinant 15-PGDH", "assay_type": "biochemical"}, "[5]": {"test": "stability on incubation with rat liver extracts", "assay_type": "in vitro ADME"}, "[6]": {"test": "stability on incubation with mouse liver extracts", "assay_type": "in vitro ADME"}, "[7]": {"system": "mice", "test": "toxicity after IP injection into mice", "details": "IP into mice at 50 mg/kg body weight"}, "[8]": {"test": "stability on incubation with human liver extracts", "assay_type": "in vitro ADME"}, "[9]": {"system": "HMGB1 and proinflammatory cytokines", "test": "renal IRI model: HMGB1 and cytokine levels", "assay_type": "in vivo", "details": "mice, 3 doses 5 mg/kg", "procedure": "as §1\nInflammatory cytokine mRNA and protein levels were measured by real-time PCR and ELISA, respectively. Kidney tissue and serum were harvested after reperfusion for 24 h. Total RNA was extracted from frozen kidney tissue using TRIzol reagent (15596018; Invitrogen), according to the manufacturer's protocol. RNA was converted to cDNA using oligo-dT primers. IL-17, TNF-α, and […] levels were determined by real-time PCR with SYBR green PCR Master Mix and the primers listed in Table 1. For ELISA, frozen kidney tissues were homogenized in phosphate buffer. Serum IL-17 (M1700; R&D Systems), TNF-α (MTAOOB; R&D Systems), and IL-10β (MLBOOC; R&D Systems) were measured using commercial ELISA kits according to the manufacturer's instructions."}, "[10]": {"system": "mice with ischemic AKI", "test": "survival and body weight over 7 days after renal IRI", "assay_type": "in vivo", "details": "bilateral IRI 30 minutes, 5 mg/kg i.p. before and twice daily over 7 days, POD7", "procedure": "(A) Experimental setup for toxicity. Ischemic AKI induced by bilaterally clamping the renal arteries for 30 minutes, followed by reperfusion. […] (n=10 per group). (B, C) Survival curves and body weight over 7 days. Kaplan-Meier analysis of survival stratified by AKI stage. Data are means±SEM. *P<0.05 vs. corresponding BI30_vehicle."}, "[11]": {"system": "renal arterioles in the outer medulla", "test": "renal vasodilatation in the outer medulla (α-SMA-positive arteriole area)", "assay_type": "in vivo, mice", "details": "IRI mice; α-SMA staining", "procedure": "as §1\nTo quantify vasodilation, the inner arteriole area of the outer medulla was determined using α-SMA-stained sections. After counterstaining with Mayer's hematoxylin, the inner area of α-SMA-positive vessels in the outer medulla (×25) was measured using ImageJ. The results are expressed as average areas of renal arteries outer medulla."}, "[12]": {"system": "PGE2 receptors (EP1, EP2, EP3 and EP4) and adenosine receptor (A2A)", "test": "renal IRI model: PGE2 receptors (EP1-EP4) and adenosine A2A receptor levels", "assay_type": "in vivo, mice", "details": "kidney tissue, IRI mice", "procedure": "as §1\nPGE2 receptors (EP1, EP2, EP3 and EP4) and adenosine receptor (A2A) mRNA levels were determined by real-time PCR with SYBR green PCR Master Mix and the primers listed in Table 1. Their protein levels were determined by western blotting assay and immunofluorescence analysis."}, "[13]": {"system": "mice with ischemic AKI", "test": "renal IRI model: necrotic and apoptotic cell death in the outer medulla", "assay_type": "in vivo", "procedure": "as §1\nTo evaluate necrosis, 5-μm-thick paraffin sections were stained with H&E. Tubular injury was scored semi quantitatively according to a scoring system by a pathologist who examined at least 20 separate fields (×400) in the outer medulla, which is the zone most sensitive to ischemic injury. The scoring system was as follows: 0, no damage; 1, patchy isolated unicellular necrosis; 2, tubular necrosis <25%; 3, tubular necrosis 25-50%; and 4, tubular necrosis >50%. At least 20 consecutive high-power fields (magnification, ×400) per section were scored by two operators blind to the details of the experiment. To analyze the frequency of apoptosis, 5-μm-thick paraffin sections were subjected to terminal deoxynucleotidyl transferase-mediated dUTP nick-end labeling (TUNEL) assay (APT110; Millipore) according to the manufacturer's protocol. TUNEL-positive cells were counted in at least five separate fields (×640 magnification) in the outer medulla, and the apoptosis index (%, number of apoptosis cells/total number of cells) was calculated using GENASIS software."}}}
{"smiles": "CCCCC[C@H](O)/C=C/[C@H]1[C@H](O)CC(=O)[C@@H]1CCCCCCC(=O)O", "note": "[PGE1, reference compound]", "values": [{"measurement": "renal protection from IRI (serum NGAL, creatinine, KIM-1)", "setting": "[1]", "result": "less effective for renal protection"}]}
{"smiles": "CCCCC[C@H](O)/C=C/[C@H]1[C@H](O)CC(=O)[C@@H]1C/C=C\\CCCC(=O)O", "note": "[PGE2, reference compound]", "values": [{"measurement": "renal protection from IRI (serum NGAL, creatinine, KIM-1)", "setting": "[1]", "result": "less effective for renal protection"}]}
{"smiles": "CCCC[S+]([O-])c1sc2nc(-c3nccs3)cc(-c3cnc(C)n3C)c2c1N", "note": "(stereo not drawn) [formula (VII)]", "values": [{"measurement": "chemical stability in aqueous solutions", "setting": "[2]", "result": "chemically stable"}, {"measurement": "concentration at which PGE2 production by cell lines is increased", "setting": "[3]", "result": 20, "unit": "nM"}, {"measurement": "concentration at which recombinant 15-PGDH is inhibited", "setting": "[4]", "result": 3, "unit": "nM"}, {"measurement": "chemical stability when incubated with rat liver extracts", "setting": "[5]", "result": "chemically stable"}, {"measurement": "chemical stability when incubated with mouse liver extracts", "setting": "[6]", "result": "chemically stable"}, {"measurement": "immediate toxicity over 24 hours", "setting": "[7]", "result": "no immediate toxicity"}, {"measurement": "chemical stability when incubated with human liver extracts", "setting": "[8]", "result": "chemically stable"}]}
{"smiles": "COc1ccc2c(c1)c(CC(=O)O)c(C)n2C(=O)c1ccc(Cl)cc1", "note": "[indomethacin, reference compound]", "values": [{"measurement": "renal protection from IRI (serum NGAL, creatinine, KIM-1)", "setting": "[1]", "result": "significantly aggravated IRI"}, {"measurement": "induction of inflammatory cytokines", "setting": "[9]", "result": "increased induction of inflammatory cytokines"}, {"measurement": "increase of HMGB1 compared to the IRI-vehicle group", "setting": "[9]; kidney tissue, western blot", "result": 50, "unit": "%"}, {"measurement": "reduced survival vs vehicle control", "setting": "[10]", "result": 25, "unit": "%"}, {"measurement": "renal arteriole area in the outer medulla", "setting": "[11]", "result": "significantly decreased"}, {"measurement": "EP4 mRNA", "setting": "[12]", "result": "reduced"}, {"measurement": "increase of levels of mRNA for EP1", "setting": "[12]", "result": 40, "unit": "%"}, {"measurement": "tissue congestion in the outer medulla (gross pathology)", "setting": "[13]; 3 doses 5 mg/kg i.p., POD1, vs IRI-vehicle", "result": "worsened"}, {"measurement": "renal injury (histopathology, tubular injury)", "setting": "[13]; 3 doses 5 mg/kg, POD1", "result": "further exacerbated renal injury"}]}
